This is an account of results in patent US20030187007A1, “Inhibitors of protein kinase for the treatment of disease” (priority 2001, published 2003).

Counter-ions that a name gives are not always drawn. Where only a bound is given, the exact number is not on record here.

What all share (type): biochemical
One experiment deals with KDR (Homo sapiens, UniProt P35968). In words: Enzyme assay for  (KDR), IC50 determination. The conditions noted are these: 50 nM KDR, 500 μM ATP. As for the experimental part:
Enzyme assays for IC50 determinations were performed in 96-well titer plates, in a total reaction volume of 50 μL. Each reaction contained 1.5 μL of appropriate dilutions of inhibitor, 50 mM Hepes, pH 7.4, 1 mM DTT, 10 mM magnesium chloride, 2 mM phospho-poly(E4Y) (Sigma Chemical Company), 500 μM unlabeled ATP, 0.0025 μM [^33P]ATP (Amersham Pharmacia Biotech), and 50 nM KDR. All components except KDR were added to the wells, and the reaction was started by the addition of the enzyme. The reactions were mixed and incubated at room temperature for 1 hr, after which the reactions were quenched by the addition of 50 μL of 8% phosphoric acid. At this point, 90 μL aliquots of the samples were applied to positively charged DEAE 96-well filter plates (Millipore Corporation MADENOB10). The plates were incubated for 30 min at room temperature. The samples were aspirated and the wells were washed 3 times with 200 μL of 0.5% phosphoric acid. To each well, 50 μL of scintillation cocktail was added and counted for 60 sec in a TopCount microplate scintillation counter (Packard Instrument Company). The concentration of a compound that inhibited the activity of KDR by 50% (IC50) was determined based its inhibition curve.

Experiment [1] addresses CDK2 complexed with cyclin A (Homo sapiens, UniProt P24941). In words: Cyclin dependent kinase activity assay, phosphorylation of synthetic peptide PKTPKKAKKLRRR
Particulars: 0.1 mM ATP, read-out: CDK 2 Activity*. As for the experimental part:
(§1) The assay of cyclin dependent kinase activity was determined by monitoring the phosphorylation of a synthetic peptide, PKTPKKAKKLRRR. The assay mixture contained 0.1 mM cold ATP, ^33P-γ-ATP (2000-4000 cpm/μL), 0.1 mM peptide, 1 mM DTT, and 10 mM MgCl2 in 100 mM HEPES buffer pH 7.4. The assay mixture, along with inhibitor and CDK enzyme (0.3-0.4 U/mL; either CDK5 complexed with p25, CDK2 complexed with complexed with cyclin A), was mixed together in a microtiter plate in a final volume of 40 μL, sealed and incubated for 2 hours at 30° C. Following incubation, a 15 μL aliquot was added to a Whatman P81 filtration plate containing 100 μL 0.5% phosphoric acid. This mixture was allowed to stand for 5 minutes prior to filtration on a vacuum manifold. The filter plate was washed with 5 successive additions of 300 μL 0.5% phosphoric acid. The filtration plate was air dried for 10 minutes before sealing the bottom. After addition of scintillation fluid to the sealed plate, phosphorylated peptide was quantified in a scintillation counter.

The target in another experiment is CDK5 complexed with p25 (Homo sapiens, UniProt Q00535). Described as above. The conditions noted are these: CDK5 complexed with p25, 0.1 mM ATP; read-out: CDK 5 Activity*. As for the experimental part:
as §1

Sequence of KDR (P35968 20-1356): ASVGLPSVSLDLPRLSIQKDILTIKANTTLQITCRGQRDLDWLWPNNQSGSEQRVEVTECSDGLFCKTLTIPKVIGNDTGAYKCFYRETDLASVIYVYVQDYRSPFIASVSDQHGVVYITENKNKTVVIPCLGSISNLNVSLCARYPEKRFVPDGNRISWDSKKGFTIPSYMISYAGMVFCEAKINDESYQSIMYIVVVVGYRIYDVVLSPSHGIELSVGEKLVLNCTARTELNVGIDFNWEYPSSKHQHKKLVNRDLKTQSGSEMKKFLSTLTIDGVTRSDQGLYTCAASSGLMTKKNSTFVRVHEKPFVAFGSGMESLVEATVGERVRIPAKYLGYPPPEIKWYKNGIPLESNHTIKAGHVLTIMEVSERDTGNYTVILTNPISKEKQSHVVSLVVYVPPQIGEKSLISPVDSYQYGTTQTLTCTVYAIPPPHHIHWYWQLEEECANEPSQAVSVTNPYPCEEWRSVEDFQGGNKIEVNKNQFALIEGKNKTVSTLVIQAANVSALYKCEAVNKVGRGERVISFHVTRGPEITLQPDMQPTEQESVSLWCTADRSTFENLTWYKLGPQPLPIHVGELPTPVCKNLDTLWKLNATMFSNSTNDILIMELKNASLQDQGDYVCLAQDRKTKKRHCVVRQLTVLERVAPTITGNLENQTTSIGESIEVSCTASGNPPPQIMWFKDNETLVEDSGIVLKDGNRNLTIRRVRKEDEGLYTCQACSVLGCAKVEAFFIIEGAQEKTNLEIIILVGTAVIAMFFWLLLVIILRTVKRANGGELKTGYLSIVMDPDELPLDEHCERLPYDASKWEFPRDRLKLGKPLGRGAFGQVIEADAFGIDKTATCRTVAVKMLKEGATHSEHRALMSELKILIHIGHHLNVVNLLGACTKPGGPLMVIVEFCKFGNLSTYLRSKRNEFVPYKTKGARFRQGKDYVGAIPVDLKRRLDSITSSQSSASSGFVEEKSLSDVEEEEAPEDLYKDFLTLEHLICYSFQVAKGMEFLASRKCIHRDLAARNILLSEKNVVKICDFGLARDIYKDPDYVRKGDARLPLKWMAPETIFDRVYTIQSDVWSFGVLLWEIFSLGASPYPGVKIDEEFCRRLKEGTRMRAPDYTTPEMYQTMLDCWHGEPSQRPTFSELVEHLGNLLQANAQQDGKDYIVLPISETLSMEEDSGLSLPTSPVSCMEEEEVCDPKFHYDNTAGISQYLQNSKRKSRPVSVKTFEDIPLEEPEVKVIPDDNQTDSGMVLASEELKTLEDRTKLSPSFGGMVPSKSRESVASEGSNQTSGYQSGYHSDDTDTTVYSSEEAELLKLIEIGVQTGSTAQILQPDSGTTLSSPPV
Sequence of CDK5 complexed with p25 (Q00535 whole entry): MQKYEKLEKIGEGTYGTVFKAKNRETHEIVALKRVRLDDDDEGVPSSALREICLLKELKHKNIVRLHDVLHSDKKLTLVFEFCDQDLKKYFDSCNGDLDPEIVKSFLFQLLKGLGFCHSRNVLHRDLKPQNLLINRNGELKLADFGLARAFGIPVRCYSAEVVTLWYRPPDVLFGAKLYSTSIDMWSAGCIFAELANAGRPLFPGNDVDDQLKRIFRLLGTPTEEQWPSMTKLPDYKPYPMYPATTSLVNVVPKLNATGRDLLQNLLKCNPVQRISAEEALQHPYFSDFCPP
Sequence of CDK5 complexed with p25 (Q15078 99-307 partner limits assumed): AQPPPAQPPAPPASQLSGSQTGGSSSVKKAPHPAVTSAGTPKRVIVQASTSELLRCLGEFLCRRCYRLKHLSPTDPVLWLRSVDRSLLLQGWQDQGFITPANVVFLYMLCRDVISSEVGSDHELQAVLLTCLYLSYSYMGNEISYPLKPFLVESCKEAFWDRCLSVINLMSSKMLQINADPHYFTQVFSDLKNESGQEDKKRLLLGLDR

At KDR, `CN1CCN(c2cc(-c3cc(-c4ccc(O)cc4)ccc3O)nc(N)n2)CC1` [Example 104, 3-[2-Amino-6-(4-methyl-piperazin-1-yl)-pyrimidin-4-yl]-biphenyl-4.4′-diol] showed an IC50 of 1000 to 20000 nM. On the same count and under the same terms, the same measure for `COc1cccc(Nc2cc(-c3cc(-c4ccc(O)cc4)ccc3O)nc(N)n2)c1` [Example 111, 3-[2-Amino-6-(3-methoxy-phenylamino)-pyrimidin-4-yl]-biphenyl-4,4′-diol]: < 1000 nM; for `Nc1nc(N[C@@H](CO)Cc2c[nH]c3ccccc23)cc(-c2cc(-c3ccc(O)cc3)ccc2O)n1` [Example 102, 3-{2-Amino-6-[2-hydroxy-1R-(1 H-indol-3-ylmethyl)-ethylamino]-pyrimidin-4-yl}-biphenyl-4,4′-diol]: 1000 to 20000 nM.

With `Nc1nc(-c2cc(-c3ccc(O)cc3)ccc2O)cc(N2CCN(Cc3ccccc3)CC2)n1` [Example 101, 3-[2-Amino-6-(4-benzyl-piperazin-1-yl)-pyrimidin-4-yl]-biphenyl-4,4′-diol], the IC50 against KDR lay within 1000 to 20000 nM. For `CC(C)(C)OC(=O)n1cccc1-c1ccc(O)c(-c2ccnc(N)n2)c1` [Example 95, 2-[3-(2-Amino-pyrimidin-4-yl)-4-hydroxy-phenyl]-pyrrole-1-carboxylic acid t-butyl ester], the IC50 against KDR lay in the range of 1000 to 20000 nM. With `Nc1nc(N[C@H](CO)c2ccccc2)cc(-c2cc(-c3ccc(O)cc3)ccc2O)n1` [Example 97, 3-[2-Amino-6-(2-hydroxy-1S-phenyl-ethylamino)-pyrimidin-4-yl]-biphenyl-4,4′-diol], the IC50 on KDR is < 1000 nM. On the same count and under the same terms, under `COc1ccc(Nc2cc(-c3cc(-c4ccc(O)cc4)ccc3O)nc(N)n2)cc1` [Example 98, 3-[2-Amino-6-(4-methoxy-phenylamino)-pyrimidin-4-yl]-biphenyl-4,4′-diol] stands < 1000 nM; under `COc1cccc(CNc2cc(-c3cc(-c4ccc(O)cc4)ccc3O)nc(N)n2)c1` [Example 117, 3-[2-Amino-6-(3-methoxy-benzylamino)-pyrimidin-4-yl]-biphenyl-4,4′-diol], < 1000 nM. `Nc1nc(-c2cc(-c3ccc(O)cc3)ccc2O)cc(N2CCSCC2)n1` [Example 107, 3-(2-Amino-6-thiomorpholin-4-yl-pyrimidin-4-yl)-biphenyl-4,4′-diol] gave an IC50 at KDR of 1000 to 20000 nM.

For the compound `Nc1nc(Nc2cccc(Cl)c2)cc(-c2cc(-c3ccc(O)cc3)ccc2O)n1` [Example 109, 3-[2-Amino-6-(3-chloro-phenylamino)-pyrimidin-4-yl]-biphenyl-4,4′-diol], on KDR, the IC50 is < 1000 nM. Same read-out and setting: under `Nc1nc(NCCc2ccccn2)cc(-c2cc(-c3ccc(O)cc3)ccc2O)n1` [Example 106, 3-[2-Amino-6-(2-pyridin-2-yl-ethylamino)-pyrimidin-4-yl]-biphenyl-4,4′-diol] stands < 1000 nM. Still for that read-out and setting: the same measure for `Nc1nc(N[C@H](CO)CSCc2ccccc2)cc(-c2cc(-c3ccc(O)cc3)ccc2O)n1` [Example 99, 3-[2-Amino-6-(2-benzylsulfanyl-1R-hydroxymethyl-ethylamino)-pyrimidin-4-yl]-biphenyl-4,4′-diol]: < 1000 nM; for `Nc1nc(NCc2ccccc2-c2ccccc2)cc(-c2cc(-c3ccc(O)cc3)ccc2O)n1` [Example 108, 3-{2-Amino-6-[(biphenyl-2-ylmethyl)-amino]-pyrimidin-4-yl}-biphenyl-4,4′-diol]: < 1000 nM.

For the compound `NC(=O)N/N=C/c1cc(-c2cccc(C(=O)O)c2)ccc1O` [Example 18, 5-(3-Carboxyphenyl)salicylaldehyde semicarbazone hydrochloride], the figures for the IC50 (in experiment [1]; at CDK5 complexed with p25) were 500 to 2000 nM and < 500 nM, respectively. Taken in the same sequence, the figures for `NC(=S)N/N=C/c1cc(-c2ccc([N+](=O)[O-])cc2)ccc1O` [Example 11, 5-(4-Nitrophenyl)salicylaldehyde thiosemicarbazone] were > 5000 nM and 2000 to 5000 nM. The matching figures for `NC(=S)N/N=C/c1cc(-c2cccnc2)ccc1O` [Example 31, 5-(3-Pyridyl)salicylaldehyde thiosemicarbazone]: 500 to 2000 nM and < 500 nM.

For the compound `NC(=S)N/N=C/c1cc(-c2cccs2)ccc1O` [Example 33, 5-(2-Thienyl)salicylaldehyde thiosemicarbazone], the IC50 is < 500 nM in experiment [1] and 500 to 2000 nM on CDK5 complexed with p25.

As to `NC(=S)N/N=C/c1cc(-c2ccccc2)ccc1O` [Example 4, 5-Phenylsalicylaldehyde thiosemicarbazone], the IC50 was 500 to 2000 nM in experiment [1] and < 500 nM on CDK5 complexed with p25. The matching figures for `COC(=O)c1cccc(-c2ccc(O)c(/C=N/NC(N)=O)c2)c1` [Example 13, 5-(3-Methoxycarbonylphenyl)salicylaldehyde semicarbazone hydrochloride]: 2000 to 5000 nM and > 5000 nM. The matching figures for `Nc1nccc(-c2ccc(O)c(-c3ccnc(N)n3)c2)n1` [Example 68, 2,4-Bis-(2-amino-pyrimidin-4-yl)-phenol]: < 500 nM and < 500 nM. Taken in the same sequence, the figures for `NC(=S)N/N=C/c1cc(-c2ccc(F)cc2)ccc1O` [Example 16, 5-(4-Fluorophenyl)salicylaldehyde thiosemicarbazone] were 2000 to 5000 nM and 500 to 2000 nM. `NC(=S)N/N=C/c1cc(-c2cccc(CO)c2)ccc1O` [Example 8, 5-(3-Hydroxymethylphenyl)salicylaldehyde thiosemicarbazone]: the IC50 (in experiment [1]; on CDK5 complexed with p25) was > 5000 nM each time. As for `NC(=O)N/N=C/c1cc(-c2cccc(CO)c2)ccc1O` [Example 9, 5-(3-Hydroxymethylphenyl)salicylaldehyde semicarbazone hydrochloride], the IC50 was 2000 to 5000 nM in experiment [1] and 500 to 2000 nM on CDK5 complexed with p25.

For the compound `Nc1nccc(-c2cc(-c3cccnc3)ccc2O)n1` [Example 63, 2-(2-Amino-pyrimidin-4-yl)-4-pyridin-3-yl-phenol], the IC50 is > 5000 nM in experiment [1] and < 500 nM at CDK5 complexed with p25. The matching figures for `NC(=S)N/N=C/c1cc(-c2ccc(O)cc2)c(O)cc1O` [Example 28, 4-Hydroxy-5-(4-hydroxyphenyl)salicylaldehyde thiosemicarbazone]: 500 to 2000 nM and 2000 to 5000 nM. The matching figures for `N#Cc1cccc(-c2ccc(O)c(/C=N/NC(N)=S)c2)c1` [Example 7, 5-(3-Cyanophenyl)salicylaldehyde thiosemicarbazone]: > 5000 nM and 2000 to 5000 nM. The matching figures for `Nc1ccc(-c2ccc(O)c(-c3ccnc(N)n3)c2)cn1` [Example 65, 4-(6-Amino-pyridin-3-yl)-2-(2-amino-pyrimidin-4-yl)-phenol]: < 500 nM and 500 to 2000 nM. As to `Nc1nccc(-c2c(O)ccc3ccccc23)n1` [Example 46, 2-Amino-4-[1-(2-hydroxynaphthyl)]pyrimidine], the IC50 in experiment [1] was > 5000 nM; on CDK5 complexed with p25 it was 2000 to 5000 nM. Taken in the same sequence, the figures for `NC(=S)N/N=C/c1cc2ccc(O)cc2cc1O` [Example 43] were < 500 nM and < 500 nM. Taken in the same sequence, the figures for `Nc1ncc(-c2ccc(O)c(-c3ccnc(N)n3)c2)cn1` [Example 66, 2-(2-Amino-pyrimidin-4-yl)-4-(2-amino-pyrimidin-5-yl)-phenol] were 500 to 2000 nM and 500 to 2000 nM. For `NC(=S)N/N=C/c1cc(-c2ccsc2)ccc1O` [Example 34, 5-(3-Thienyl)salicylaldehyde thiosemicarbazone], the IC50 is < 500 nM in experiment [1] and 500 to 2000 nM on CDK5 complexed with p25. Taken in the same sequence, the figures for `NC(=O)N/N=C/c1cc(-c2ccc(O)cc2)c(O)cc1O` [Example 29, 4-Hydroxy-5-(4-hydroxyphenyl)salicylaldehyde semicarbazone hydrochloride] were 500 to 2000 nM and > 5000 nM.

Take `Nc1nc(NCCO)cc(-c2cc(-c3ccc(O)cc3)ccc2O)n1` [Example 55, 3-[2-Amino-6-(2-hydroxy-ethylamino)-pyrimidin-4-yl]-biphenyl-4,4′-diol]: the IC50 (in experiment [1]; at CDK5 complexed with p25) was < 500 nM throughout. With `NC(=S)N/N=C/c1cc(-c2ccncc2)ccc1O` [Example 30, 5-(4-Pyridyl)salicylaldehyde thiosemicarbazone], the IC50 is 2000 to 5000 nM in experiment [1] and < 500 nM at CDK5 complexed with p25. The matching figures for `NC(=S)N/N=C/c1cc(CCC(=O)O)ccc1O` [Example 40, 3-(3-Formyl-4-hydroxyphenyl)propionic acid, thiosemicarbazone]: < 500 nM and < 500 nM.
